Measurements from patent EP0830890A1, “Surfactants for use in liquid/supercritical CO2” (AIR PRODUCTS AND CHEMICALS, INC., priority 1996, dated 1998).

How the values were obtained:
Assay type in all cases: physicochemical
[1] = Solubility in CO2 by cloud point determination in a variable volume view cell; design: Pressure Describing Cloud Point Determinations For Surfactant/CO2 Concentrations / Pressure Describing Cloud Point Determinations For Surfactant/CO2Concentrations: unit not given here
Description: In the following examples, mixtures of acetylenic alcohols or diols and CO2 were prepared by adding the acetylenic alcohol or diol to a stainless steel variable volume view cell equiped with suitable relief devices, high pressure valves CO2 inlet and outlet and a sapphire window at one end. A high pressure syringe pump (High Pressure Products, HIP pump) was filled with liquid CO2 and used to quantitiatively add CO2 to the pressure vessel. The pressure vessel contained a magnetic stirrer and was stirred via a magnetic couple to a magnet located below the vessel.
A weighed amount of surfactant (0.5-10 weight %) was placed inside the cell chamber in front of the piston. The cell window was attached and 10 cc ? s of CO2, was added to the cell. The surfactant was mixed in the CO2 using a magnetic stirring bar. The cell was mounted in horizontally and then immersed in a water bath. After allowing the high pressure cell to attain thermal equilibrium the pressure within the cell was varied using a floating piston. The pressure was changed to monitor the cloud point as being indicative of insolubility. The operator viewed the floating piston through the sapphire window using a suitable optic device, the onset of insolubility was taken when the translucent solution changed to an orange/brown color due to the Tindall light scattering of the insoluble droplets. The onset of insolubility was checked several times by varying the pressure using the high pressure syringe pump.
A water bath was used to vary the temperature for each concentration. On completing the solubility studies at one concentration and one temperature series, a calibrated injector loop attached to the high pressure cell was filled with the surfactant via a syringe. Utilizing a six way valve to help inject this fixed amount of surfactant, the surfactant concentration within the high pressure cell was increased by a fixed increment. The solubility studies for this new CO2/surfactant concentration were measured at various temperatures in a similar manner to that previously described.

[2] = Interfacial tension of a PEG 600 drop in CO2/surfactant solution via pendant drop technique; conditions: for Interfacial Tension IFT: PEG (600) drop, 2 weight % Surfynol/CO2 solution
Description: Interfacial activity can be monitored using the 'pendant drop' technique, ("Chemistry of Interfaces" M.J.Jaycock & Parfitt, John Wiley and Sons, New York p49-51). This method is utilized to measure the interfacial tension between a pendant drop and a continuous phase that surrounds the drop. When carbon dioxide is used as the continuous media, special high pressure equipment with sapphire view ports is required to maintain a solution of CO2 and surfactant, and to study the change in shape of the pendant drop for interfacial tension calculations. A general procedure for these high pressure phase behavior measurements may be found in Langmuir, vol. 10 1994, pg 3536-3541, by K. Harrison, K. P. Johnston, J. Goveas and E. A. O ? Rear.
Various ethoxylates of 2,4,7,9-tetramethyl-5-decyn-4,7-diol were used in the interfacial tension study. Table 3 gives the interfacial tension observed for ethoxylates of 2,4,7,9-tetramethyl-5-decyn-4,7-diol containing 20, 40, and 65 wt% ethylene oxide. The table also gives the interfacial tension of the polyethyleneglycol (PEG 600)drop within the pure CO2 media. […] It is interesting to note the actual reduction in interfacial tension. For a control PEG 600 drop at 2510 psi the interfacial tension was measured to be 3.39 dyne/cm (run #5in Table 3). […] This corresponds to lowering the interfacial tension by 0.54 dyne/cm, a 16% reduction. A surfactant/CO2 solution of 2 weight % (using the 40 wt% ethoxylated Surfynol surfactant) gave an interfacial tension of 1.57 dyne/cm. at a CO2 pressure of 4030 psi (run #33in Table 3). The corresponding PEG drop at 4093psi used as the control gave an interfacial tension of 1.92dyne/cm (run #18 in Table 3).

[3] = PEG (MW=600) uptake by surfactant/CO2 mixture (phase behavior, cloud point); conditions: Wt% Surfactant in CO2 0.897%
[4] = 2 weight % in CO2 at 2501 psi vs control PEG 600 drop at 2510 psi

Compound: C#CC(C)(O)CC(C)C (stereo not drawn) [3,5-dimethyl-1-hexyn-3-ol]
- Pressure Describing Cloud Point Determinations For Surfactant/CO2 Concentrations ([1]; Surfactant Concn. in CO2 0.50 wt%, 35°C): 1480
- Pressure Describing Cloud Point Determinations For Surfactant/CO2 Concentrations ([1]; Surfactant Concn. in CO2 0.50 wt%, 45°C): 1800
- Pressure Describing Cloud Point Determinations For Surfactant/CO2 Concentrations ([1]; Surfactant Concn. in CO2 0.50 wt%, 55°C): 2200
- Pressure Describing Cloud Point Determinations For Surfactant/CO2 Concentrations ([1]; Surfactant Concn. in CO2 1.50 wt%, 35°C): 1530
- Pressure Describing Cloud Point Determinations For Surfactant/CO2 Concentrations ([1]; Surfactant Concn. in CO2 1.50 wt%, 45°C): 1900
- Pressure Describing Cloud Point Determinations For Surfactant/CO2 Concentrations ([1]; Surfactant Concn. in CO2 1.50 wt%, 55°C): 2260
- Pressure Describing Cloud Point Determinations For Surfactant/CO2 Concentrations ([1]; Surfactant Concn. in CO2 2.50 wt%, 35°C): 1500
- Pressure Describing Cloud Point Determinations For Surfactant/CO2 Concentrations ([1]; Surfactant Concn. in CO2 2.50 wt%, 45°C): 1860
- Pressure Describing Cloud Point Determinations For Surfactant/CO2 Concentrations ([1]; Surfactant Concn. in CO2 2.50 wt%, 55°C): 2210
- Pressure Describing Cloud Point Determinations For Surfactant/CO2 Concentrations ([1]; Surfactant Concn. in CO2 5.00 wt%, 35°C): 1380
- Pressure Describing Cloud Point Determinations For Surfactant/CO2 Concentrations ([1]; Surfactant Concn. in CO2 5.00 wt%, 45°C): 1770
- Pressure Describing Cloud Point Determinations For Surfactant/CO2 Concentrations ([1]; Surfactant Concn. in CO2 5.00 wt%, 55°C): 2120
- Pressure Describing Cloud Point Determinations For Surfactant/CO2 Concentrations ([1]; Surfactant Concn. in CO2 7.60 wt%, 35°C): 1280
- Pressure Describing Cloud Point Determinations For Surfactant/CO2 Concentrations ([1]; Surfactant Concn. in CO2 7.60 wt%, 45°C): 1680
- Pressure Describing Cloud Point Determinations For Surfactant/CO2 Concentrations ([1]; Surfactant Concn. in CO2 7.60 wt%, 55°C): 2030
- Pressure Describing Cloud Point Determinations For Surfactant/CO2 Concentrations ([1]; Surfactant Concn. in CO2 10.20 wt%, 35°C): 1200
- Pressure Describing Cloud Point Determinations For Surfactant/CO2 Concentrations ([1]; Surfactant Concn. in CO2 10.20 wt%, 45°C): 1590
- Pressure Describing Cloud Point Determinations For Surfactant/CO2 Concentrations ([1]; Surfactant Concn. in CO2 10.20 wt%, 55°C): 1950
- solubility levels by weight to CO2 ([1]; in CO2): 10.2 % by weight

Compound: Ethoxylated 2,4,7,9-Tetramethyl-5-decyn-4,7-diol [AP-420]
- lowering the interfacial tension [2, 4]: 0.54 dyne/cm
- reduction in interfacial tension [2, 4]: 16%
- Interfacial Tension IFT ([2]; 1984 psi (137 bar)): 3.45 dyne/cm
- Interfacial Tension IFT ([2]; 2140 psi (148 bar)): 3.05 dyne/cm
- Interfacial Tension IFT ([2]; 2498 psi (172 bar)): 2.75 dyne/cm
- Interfacial Tension IFT ([2]; 2501 psi (173 bar)): 2.85 dyne/cm
- Interfacial Tension IFT ([2]; 3007 psi (207 bar)): 2.32 dyne/cm
- Interfacial Tension IFT ([2]; 3574 psi (246 bar)): 1.83 dyne/cm
- Pressure Describing Cloud Point Determinations For Surfactant/CO2Concentrations ([1]; Surfactant Concn. in CO2 1.3646 wt%, 25°C): 1410
- Pressure Describing Cloud Point Determinations For Surfactant/CO2Concentrations ([1]; Surfactant Concn. in CO2 1.3646 wt%, 35°C): 2040
- Pressure Describing Cloud Point Determinations For Surfactant/CO2Concentrations ([1]; Surfactant Concn. in CO2 1.3646 wt%, 60°C): 3060
- Pressure Describing Cloud Point Determinations For Surfactant/CO2Concentrations ([1]; Surfactant Concn. in CO2 2.6028 wt%, 35°C): 2710
- Pressure Describing Cloud Point Determinations For Surfactant/CO2Concentrations ([1]; Surfactant Concn. in CO2 2.6028 wt%, 60°C): 4040
- Pressure Describing Cloud Point Determinations For Surfactant/CO2Concentrations ([1]; Surfactant Concn. in CO2 2.6028 wt%, 65°C): 4330
- Pressure Describing Cloud Point Determinations For Surfactant/CO2Concentrations ([1]; Surfactant Concn. in CO2 3.2104 wt%, 35°C): 2990
- Pressure Describing Cloud Point Determinations For Surfactant/CO2Concentrations ([1]; Surfactant Concn. in CO2 3.2104 wt%, 60°C): 3950
- Pressure Describing Cloud Point Determinations For Surfactant/CO2Concentrations ([1]; Surfactant Concn. in CO2 3.2104 wt%, 65°C): 4330
- Pressure Describing Cloud Point Determinations For Surfactant/CO2Concentrations ([1]; Surfactant Concn. in CO2 3.8330 wt%, 25°C): 1870
- Pressure Describing Cloud Point Determinations For Surfactant/CO2Concentrations ([1]; Surfactant Concn. in CO2 3.8330 wt%, 45°C): 2860
- Pressure Describing Cloud Point Determinations For Surfactant/CO2Concentrations ([1]; Surfactant Concn. in CO2 3.8330 wt%, 65°C): 3770
- surfactant is soluble in CO2 ([1]; in CO2): up to 4 wt%

Compound: Ethoxylated 2,4,7,9-Tetramethyl-5-decyn-4,7-diol [AP-440]
- Wt% of PEG (MW=600) uptake ([3]; 4040 psi 25°C): 1.091%
- Wt% of PEG (MW=600) uptake ([3]; 4550 psi 25°C): 1.360%
- Wt% of PEG (MW=600) uptake ([3]; 5220 psi 25°C): 1.627%
- reduction in interfacial tension ([2]; 2 weight % in CO2 at 4030 psi vs control PEG drop at 4093psi): 18.2%
- Interfacial Tension IFT ([2]; 3146 psi (217 bar)): 2.04 dyne/cm
- Interfacial Tension IFT ([2]; 3522 psi (243 bar)): 1.96 dyne/cm
- Interfacial Tension IFT ([2]; 3536 psi (244 bar)): 1.93 dyne/cm
- Interfacial Tension IFT ([2]; 4028 psi (278 bar)): 1.56 dyne/cm
- Interfacial Tension IFT ([2]; 4030 psi (278 bar)): 1.57 dyne/cm
- Interfacial Tension IFT ([2]; 4568 psi (315 bar)): 1.38 dyne/cm
- Interfacial Tension IFT ([2]; 4592 psi (317 bar)): 1.35 dyne/cm
- Pressure Describing Cloud Point Determinations For Surfactant/CO2Concentrations ([1]; Surfactant Concn. in CO2 0.6159 wt%, 25°C): 1200
- Pressure Describing Cloud Point Determinations For Surfactant/CO2Concentrations ([1]; Surfactant Concn. in CO2 0.6159 wt%, 45°C): 1750
- Pressure Describing Cloud Point Determinations For Surfactant/CO2Concentrations ([1]; Surfactant Concn. in CO2 1.2484 wt%, 25°C): 1840
- Pressure Describing Cloud Point Determinations For Surfactant/CO2Concentrations ([1]; Surfactant Concn. in CO2 1.2484 wt%, 35°C): 2610
- Pressure Describing Cloud Point Determinations For Surfactant/CO2Concentrations ([1]; Surfactant Concn. in CO2 1.8749 wt%, 60°C): 3740
- Pressure Describing Cloud Point Determinations For Surfactant/CO2Concentrations ([1]; Surfactant Concn. in CO2 2.8386 wt%, 25°C): 2580
- Pressure Describing Cloud Point Determinations For Surfactant/CO2Concentrations ([1]; Surfactant Concn. in CO2 2.8386 wt%, 45°C): 4300
- Pressure Describing Cloud Point Determinations For Surfactant/CO2Concentrations ([1]; Surfactant Concn. in CO2 2.8386 wt%, 60°C): 4510
- Pressure Describing Cloud Point Determinations For Surfactant/CO2Concentrations ([1]; Surfactant Concn. in CO2 4.0446 wt%, 25°C): 2700
- Pressure Describing Cloud Point Determinations For Surfactant/CO2Concentrations ([1]; Surfactant Concn. in CO2 4.0446 wt%, 35°C): 3740
- Pressure Describing Cloud Point Determinations For Surfactant/CO2Concentrations ([1]; Surfactant Concn. in CO2 4.0446 wt%, 45°C): 4440
- Pressure Describing Cloud Point Determinations For Surfactant/CO2Concentrations ([1]; Surfactant Concn. in CO2 4.0446 wt%, 60°C): 4670
